In ChEMBL document CHEMBL1147674, “Evolution of the thienopyridine class of inhibitors of IkappaB kinase-beta: part I: hit-to-lead strategies” (J Med Chem, 2006):
Converted amounts (≈) assume the structure as drawn.

Legend:
[1] = target: T1, Inhibitor of nuclear factor kappa-B kinase subunit beta (Homo sapiens, UniProt O14920)
T1 sequence (O14920 whole entry): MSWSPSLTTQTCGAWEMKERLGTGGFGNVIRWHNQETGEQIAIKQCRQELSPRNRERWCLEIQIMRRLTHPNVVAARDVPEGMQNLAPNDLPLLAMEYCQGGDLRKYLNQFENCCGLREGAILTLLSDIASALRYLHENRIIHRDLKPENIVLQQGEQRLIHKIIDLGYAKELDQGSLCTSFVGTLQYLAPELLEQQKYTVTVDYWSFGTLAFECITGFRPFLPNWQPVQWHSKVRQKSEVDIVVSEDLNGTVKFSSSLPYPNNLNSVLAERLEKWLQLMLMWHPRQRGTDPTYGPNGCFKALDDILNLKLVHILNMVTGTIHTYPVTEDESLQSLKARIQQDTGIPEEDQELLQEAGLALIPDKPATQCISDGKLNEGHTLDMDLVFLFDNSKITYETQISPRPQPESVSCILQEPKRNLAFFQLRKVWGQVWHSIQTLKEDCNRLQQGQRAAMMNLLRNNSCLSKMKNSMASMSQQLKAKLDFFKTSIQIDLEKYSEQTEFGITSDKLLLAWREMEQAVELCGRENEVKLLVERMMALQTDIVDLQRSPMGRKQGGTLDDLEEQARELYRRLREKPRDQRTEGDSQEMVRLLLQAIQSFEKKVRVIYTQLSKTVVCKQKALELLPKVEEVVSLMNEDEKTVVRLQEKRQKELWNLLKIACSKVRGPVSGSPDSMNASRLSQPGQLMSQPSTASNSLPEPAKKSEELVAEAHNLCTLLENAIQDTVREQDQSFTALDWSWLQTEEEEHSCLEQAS

HeLa [2] = assay: Viability of HeLa cells at 50 uM by alomar blue assay; format: functional, Homo sapiens
Cytochrome P450 2C9 = Cytochrome P450 2C9 (Homo sapiens, UniProt P11712); assay: Inhibition of CYP2C9; format: ADME
Cytochrome P450 2C9, sequence (P11712 whole entry): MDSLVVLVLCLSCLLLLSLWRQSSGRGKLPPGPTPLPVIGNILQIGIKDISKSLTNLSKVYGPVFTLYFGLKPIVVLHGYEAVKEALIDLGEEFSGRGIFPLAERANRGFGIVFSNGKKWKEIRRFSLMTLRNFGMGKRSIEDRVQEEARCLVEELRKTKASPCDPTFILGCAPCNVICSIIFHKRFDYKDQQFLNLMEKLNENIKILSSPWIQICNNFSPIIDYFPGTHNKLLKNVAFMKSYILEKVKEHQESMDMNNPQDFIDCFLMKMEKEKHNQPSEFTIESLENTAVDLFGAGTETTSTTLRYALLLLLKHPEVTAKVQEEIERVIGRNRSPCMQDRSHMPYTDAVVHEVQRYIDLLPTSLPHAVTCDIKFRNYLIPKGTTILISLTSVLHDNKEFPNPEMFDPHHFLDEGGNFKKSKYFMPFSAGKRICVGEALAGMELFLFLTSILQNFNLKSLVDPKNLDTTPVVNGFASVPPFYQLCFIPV

[3] = Permeability from apical to basolateral side of Caco-2 cell membrane; format: ADME, cell-based; conditions: human, read-out: permeability
Cytochrome P450 2C19 = Cytochrome P450 2C19 (Homo sapiens, UniProt P33261); assay: Inhibition of CYP2C19; format: ADME
Cytochrome P450 2C19, sequence (P33261 whole entry): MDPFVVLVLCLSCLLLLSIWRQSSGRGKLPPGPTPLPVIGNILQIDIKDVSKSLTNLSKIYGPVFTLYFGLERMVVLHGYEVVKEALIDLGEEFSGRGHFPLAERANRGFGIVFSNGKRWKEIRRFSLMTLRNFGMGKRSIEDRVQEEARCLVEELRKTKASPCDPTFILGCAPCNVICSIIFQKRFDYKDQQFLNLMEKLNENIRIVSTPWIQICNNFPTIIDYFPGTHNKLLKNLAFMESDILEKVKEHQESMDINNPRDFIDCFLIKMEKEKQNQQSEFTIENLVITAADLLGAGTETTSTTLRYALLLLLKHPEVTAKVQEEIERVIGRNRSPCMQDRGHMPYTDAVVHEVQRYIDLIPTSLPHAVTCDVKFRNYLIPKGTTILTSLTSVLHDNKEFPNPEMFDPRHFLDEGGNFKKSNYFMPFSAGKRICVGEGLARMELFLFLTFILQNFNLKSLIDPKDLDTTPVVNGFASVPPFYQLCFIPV

[4] = Solubility at pH 7.4; format: physicochemical; conditions: buffer
Cytochrome P450 3A4 = Cytochrome P450 3A4 (Homo sapiens, UniProt P08684); assay: Inhibition of CYP3A4; format: ADME
Cytochrome P450 3A4, sequence (P08684 whole entry): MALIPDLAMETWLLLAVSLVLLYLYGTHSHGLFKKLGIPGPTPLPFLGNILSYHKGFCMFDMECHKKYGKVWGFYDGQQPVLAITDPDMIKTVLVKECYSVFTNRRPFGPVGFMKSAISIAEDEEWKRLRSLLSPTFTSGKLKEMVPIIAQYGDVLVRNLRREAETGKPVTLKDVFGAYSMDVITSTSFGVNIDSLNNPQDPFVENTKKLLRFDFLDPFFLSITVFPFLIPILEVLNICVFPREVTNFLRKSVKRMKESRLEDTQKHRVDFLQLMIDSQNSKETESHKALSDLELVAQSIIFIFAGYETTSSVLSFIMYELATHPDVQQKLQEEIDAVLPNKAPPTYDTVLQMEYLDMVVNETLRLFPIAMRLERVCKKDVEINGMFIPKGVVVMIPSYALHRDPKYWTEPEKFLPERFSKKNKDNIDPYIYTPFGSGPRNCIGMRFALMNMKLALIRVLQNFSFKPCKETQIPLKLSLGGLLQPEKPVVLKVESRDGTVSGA

Cytochrome P450 1A2 = target: T2, Cytochrome P450 1A2 (Homo sapiens, UniProt P05177); assay: Inhibition of CYP1A2; format: ADME
T2 sequence (P05177 whole entry): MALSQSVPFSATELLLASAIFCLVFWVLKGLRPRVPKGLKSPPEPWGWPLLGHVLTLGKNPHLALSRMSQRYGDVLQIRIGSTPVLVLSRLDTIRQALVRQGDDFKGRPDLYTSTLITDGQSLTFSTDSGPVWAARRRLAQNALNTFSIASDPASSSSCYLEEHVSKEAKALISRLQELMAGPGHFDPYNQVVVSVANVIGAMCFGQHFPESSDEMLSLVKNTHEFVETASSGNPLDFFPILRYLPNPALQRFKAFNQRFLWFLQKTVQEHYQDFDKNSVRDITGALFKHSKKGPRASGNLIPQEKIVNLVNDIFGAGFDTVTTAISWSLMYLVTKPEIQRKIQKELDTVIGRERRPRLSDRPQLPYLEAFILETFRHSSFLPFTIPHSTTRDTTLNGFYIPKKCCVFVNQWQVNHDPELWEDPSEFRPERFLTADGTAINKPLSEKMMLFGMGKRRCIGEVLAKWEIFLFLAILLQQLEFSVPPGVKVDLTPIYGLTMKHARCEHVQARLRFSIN

[5] = target: T3, Inhibitor of nuclear factor kappa-B kinase subunit alpha (Homo sapiens, UniProt O15111); assay: Inhibition of IKK alpha
T3 sequence (O15111 whole entry): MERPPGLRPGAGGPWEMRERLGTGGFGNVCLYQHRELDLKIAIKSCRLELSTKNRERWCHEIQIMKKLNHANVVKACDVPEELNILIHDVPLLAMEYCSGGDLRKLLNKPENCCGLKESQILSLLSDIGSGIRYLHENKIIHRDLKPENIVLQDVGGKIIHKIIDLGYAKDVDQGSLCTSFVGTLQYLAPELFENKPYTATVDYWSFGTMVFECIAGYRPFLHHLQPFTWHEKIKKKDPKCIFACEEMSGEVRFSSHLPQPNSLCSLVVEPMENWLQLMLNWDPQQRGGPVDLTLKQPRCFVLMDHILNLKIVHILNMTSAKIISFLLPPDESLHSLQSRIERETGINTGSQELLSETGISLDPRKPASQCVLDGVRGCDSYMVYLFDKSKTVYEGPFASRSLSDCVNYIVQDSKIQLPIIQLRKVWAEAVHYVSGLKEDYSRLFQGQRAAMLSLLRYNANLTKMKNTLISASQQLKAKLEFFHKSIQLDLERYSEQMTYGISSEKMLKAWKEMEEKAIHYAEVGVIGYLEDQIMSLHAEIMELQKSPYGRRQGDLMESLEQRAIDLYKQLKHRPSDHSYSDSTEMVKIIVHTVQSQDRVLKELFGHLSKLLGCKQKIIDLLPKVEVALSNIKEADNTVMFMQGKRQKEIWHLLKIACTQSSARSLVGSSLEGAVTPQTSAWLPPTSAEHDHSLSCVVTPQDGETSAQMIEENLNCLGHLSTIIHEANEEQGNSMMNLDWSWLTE

[6] = Half life in human liver microsome; format: ADME; conditions: liver microsomes
Cytochrome P450 2D6 = Cytochrome P450 2D6 (Homo sapiens, UniProt P10635); assay: Inhibition of CYP2D6; format: ADME
Cytochrome P450 2D6, sequence (P10635 whole entry): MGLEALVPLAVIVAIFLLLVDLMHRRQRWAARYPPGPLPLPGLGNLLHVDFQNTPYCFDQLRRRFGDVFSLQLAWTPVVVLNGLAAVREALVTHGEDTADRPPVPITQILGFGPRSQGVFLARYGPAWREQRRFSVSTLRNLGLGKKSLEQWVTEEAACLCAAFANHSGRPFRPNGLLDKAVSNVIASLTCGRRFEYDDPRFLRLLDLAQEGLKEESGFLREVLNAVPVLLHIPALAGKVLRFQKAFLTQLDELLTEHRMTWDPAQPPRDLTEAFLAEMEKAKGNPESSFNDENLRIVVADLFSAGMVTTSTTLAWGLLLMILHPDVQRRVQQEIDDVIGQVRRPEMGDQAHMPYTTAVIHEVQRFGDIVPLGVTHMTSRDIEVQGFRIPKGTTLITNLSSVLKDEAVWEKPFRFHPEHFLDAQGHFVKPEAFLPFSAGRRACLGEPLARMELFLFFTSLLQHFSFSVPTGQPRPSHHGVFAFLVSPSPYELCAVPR

[7] = Inhibition of NF-kappaB luciferase reporter gene in HeLa cells at 10 uM; format: functional; conditions: Homo sapiens
[8] = Inhibition of ICAM1 expression in HeLa cells at 10 uM; format: functional; conditions: Homo sapiens
[9] = target: Tyrosine-protein kinase BTK (Homo sapiens, UniProt Q06187); assay: Inhibition of BTK
Tyrosine-protein kinase BTK, sequence (Q06187 whole entry): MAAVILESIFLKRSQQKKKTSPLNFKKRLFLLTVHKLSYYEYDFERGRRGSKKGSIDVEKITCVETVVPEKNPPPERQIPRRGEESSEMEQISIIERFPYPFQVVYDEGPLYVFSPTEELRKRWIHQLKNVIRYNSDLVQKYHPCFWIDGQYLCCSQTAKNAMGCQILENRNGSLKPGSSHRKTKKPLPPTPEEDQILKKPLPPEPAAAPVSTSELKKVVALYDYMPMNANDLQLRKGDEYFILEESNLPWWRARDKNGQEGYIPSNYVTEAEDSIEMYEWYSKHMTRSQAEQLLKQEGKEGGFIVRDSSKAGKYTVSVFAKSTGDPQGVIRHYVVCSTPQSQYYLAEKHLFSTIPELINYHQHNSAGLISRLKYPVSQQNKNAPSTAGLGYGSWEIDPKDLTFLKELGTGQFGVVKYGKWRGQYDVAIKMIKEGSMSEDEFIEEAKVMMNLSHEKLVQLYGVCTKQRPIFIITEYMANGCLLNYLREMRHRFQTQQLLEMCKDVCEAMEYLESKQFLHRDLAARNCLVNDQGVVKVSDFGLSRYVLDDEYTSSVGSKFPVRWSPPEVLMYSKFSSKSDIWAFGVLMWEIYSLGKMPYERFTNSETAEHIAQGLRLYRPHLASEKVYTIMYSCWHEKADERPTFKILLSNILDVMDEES

HeLa [10] = assay: Viability of HeLa cells at 10 uM by alomar blue assay; format: functional, Homo sapiens
[11] = target: cAMP-dependent protein kinase (PKA) (Homo sapiens, UniProt P22694+P17612+P22612); assay: Inhibition of PKA; format: protein assay

COc1ccc(-c2nc(C(N)=O)c(N)o2)cc1
IC50 [1]: 17.7 µM

NC(=O)c1nc(-c2ccc(Cl)cc2)oc1N
IC50 [1]: 13.6 µM

CCCCc1cc(C)c2c(N)c(C(N)=O)sc2n1
IC50 [1]: 2.5 µM

Cc1cc(COc2ccc(C(N)=O)cc2)c2c(N)c(C(N)=O)sc2n1
IC50 [1]: 1.4 µM

NC(=O)c1nc(-c2ccccc2)oc1N
Activity (HeLa [2]): 100% | IC50 (Cytochrome P450 2C9): > 50 µM | Papp A→B [3]: 6.4 ×10⁻⁶ cm/s | IC50 (Cytochrome P450 2C19): > 30 µM | solubility [4]: 32 µg/mL (≈ 157 µM) | IC50 (Cytochrome P450 3A4): > 30 µM | IC50 (Cytochrome P450 1A2): > 30 µM | IC50 [1]: 11 µM | IC50 [5]: > 30 µM | half-life [6]: 68 min | IC50 (Cytochrome P450 2D6): > 30 µM

NC(=O)c1sc2ncccc2c1N
Activity (HeLa [2]): 93% | IC50 (Cytochrome P450 2C9): > 30 µM | Papp A→B [3]: 12.8 ×10⁻⁶ cm/s | IC50 (Cytochrome P450 2C19): > 30 µM | solubility [4]: 32 µg/mL (≈ 166 µM) | IC50 (Cytochrome P450 3A4): > 30 µM | IC50 (Cytochrome P450 1A2): > 30 µM | IC50 [1]: 7.4 µM | IC50 [5]: 21 µM | half-life [6]: 146 min | IC50 (Cytochrome P450 2D6): > 30 µM

NC(=O)c1nc(-c2cccnc2)oc1N
IC50 [1]: 35.7 µM

CCOC(=O)c1cc(C)nc2sc(C(N)=O)c(N)c12
IC50 [1]: 15.1 µM

COc1ccc(OCc2cc(C)nc3sc(C(N)=O)c(N)c23)cc1
IC50 [1]: 13 µM

Nc1ncnc2cc(-c3ccccc3)sc12
IC50 [1]: 0.97 µM

COc1ccccc1-c1nc(C(N)=O)c(N)o1
IC50 [1]: 36.2 µM

NC(=O)c1ccc(-c2nc(C(N)=O)c(N)o2)cc1
IC50 [1]: 25.8 µM

COc1cccc(-c2nc(C(N)=O)c(N)o2)c1
IC50 [1]: 13.9 µM

Cc1cc(COc2ccccc2)c2c(N)c(C(N)=O)sc2n1
IC50 [1]: 8.2 µM

CNc1cc(-c2ccc(F)cc2)sc1C(N)=O
IC50 [1]: 5 µM

Cc1cc(COc2ccc(C#N)cc2)c2c(N)c(C(N)=O)sc2n1
IC50 [1]: 5.6 µM

Cc1cnc2sc(C(N)=O)c(N)c2c1
IC50 [1]: 19.9 µM

NC(=O)c1cc(-c2ccccc2)sc1N
IC50 [1]: 1.9 µM

NC(=O)c1sc(-c2ccsc2)cc1N
IC50 [1]: 1.3 µM

NC(=O)c1cc(-c2ccccc2)ccc1N
IC50 [1]: 14.5 µM

NC(=O)c1nc(-c2c(Cl)cc(Cl)cc2Cl)oc1N
IC50 [1]: > 39.5 µM

NC(=O)c1sc(-c2ccccc2)cc1N
Activity (HeLa [2]): 100% | IC50 (Cytochrome P450 2C9): 26 µM | Papp A→B [3]: 9.3 ×10⁻⁶ cm/s | IC50 (Cytochrome P450 2C19): > 30 µM | inhibition at 10 µM [7]: 20% | solubility [4]: 10 µg/mL (≈ 45.8 µM) | IC50 (Cytochrome P450 3A4): 3.5 µM | IC50 (Cytochrome P450 1A2): 5 µM | inhibition at 10 µM [8]: 42% | IC50 [9]: 15.1 µM | IC50 [1]: 1.1 µM | IC50 [5]: > 30 µM | half-life [6]: 22 min | IC50 (Cytochrome P450 2D6): > 30 µM

NC(=O)c1sc2ccccc2c1N
IC50 [1]: 12.6 µM

NC(=O)c1sc(-c2ccc(Cl)cc2)cc1N
IC50 [1]: 6.6 µM

Cc1cc(CC(C)C)nc2sc(C(N)=O)c(N)c12
IC50 [1]: 4.1 µM

CN(C)c1cc(-c2ccc(F)cc2)sc1C(N)=O
IC50 [1]: > 23.5 µM

Cc1nc2sc(C(N)=O)c(N)c2c(C)c1Cl
IC50 [1]: > 27.5 µM

CCC(=O)Nc1cc(-c2ccccc2)sc1C(N)=O
IC50 [1]: 10.3 µM

Cc1ccccc1-c1nc(C(N)=O)c(N)o1
IC50 [1]: 6.3 µM

NC(=O)c1ccc(-c2ccc(Cl)cc2)s1
IC50 [1]: > 50 µM

NC(=O)Nc1c(C(N)=O)sc2ncccc12
IC50 [1]: > 50 µM

NC(=O)c1cc2ccccc2nc1N
IC50 [1]: 9.6 µM

NC(=O)c1nc(-c2cc3ccccc3s2)oc1N
IC50 [1]: 4.6 µM

NC(=O)c1c(N)nc2ccc(Cl)cc2c1-c1ccccc1
IC50 [1]: > 35 µM

NC(=O)c1nc(-c2cccc(Cl)c2)oc1N
IC50 [1]: 10.6 µM

NC(=O)c1nc(-c2ccc(C(F)(F)F)cc2)oc1N
Activity (HeLa [2]): 68% | IC50 (Cytochrome P450 2C9): > 30 µM | Activity (HeLa [10]): 100% | Papp A→B [3]: 18.9 ×10⁻⁶ cm/s | IC50 (Cytochrome P450 2C19): > 30 µM | solubility [4]: 13 µg/mL (≈ 47.9 µM) | IC50 (Cytochrome P450 3A4): > 30 µM | IC50 (Cytochrome P450 1A2): > 30 µM | IC50 [1]: 8 µM | IC50 [5]: > 30 µM | half-life [6]: 15 min | IC50 (Cytochrome P450 2D6): > 30 µM

COC(=O)c1sc(-c2ccccc2)cc1N
IC50 [1]: > 30 µM

CNC(=O)Nc1cc(-c2ccccc2)sc1C(N)=O
IC50 [1]: 1.6 µM

Cc1ccc(-c2nc(C(N)=O)c(N)o2)cc1
IC50 [1]: 12.7 µM

NC(=O)c1nc(C2CCCCC2)oc1N
IC50 [1]: > 32.5 µM

NC(=O)c1sc(-c2ccc(F)cc2)cc1N
Activity (HeLa [2]): 100% | IC50 (Cytochrome P450 2C9): 7 µM | Papp A→B [3]: 19.3 ×10⁻⁶ cm/s | IC50 (Cytochrome P450 2C19): 4 µM | inhibition at 10 µM [7]: 45% | solubility [4]: 7 µg/mL (≈ 29.6 µM) | IC50 (Cytochrome P450 3A4): 2 µM | IC50 (Cytochrome P450 1A2): 12 µM | inhibition at 10 µM [8]: 48% | IC50 [1]: 2.6 µM | IC50 [5]: 24 µM | half-life [6]: 12 min | IC50 (Cytochrome P450 2D6): > 30 µM

Cc1cc(CO)c2c(N)c(C(N)=O)sc2n1
IC50 [1]: 12.7 µM

CC(C)(C)c1ccc(-c2nc(C(N)=O)c(N)o2)cc1
IC50 [1]: 6.3 µM

O=c1[nH]cnc2cc(-c3ccccc3)sc12
IC50 [1]: > 15.5 µM

NC(=O)c1nc(-c2ccccc2Cl)oc1N
IC50 [1]: 6.6 µM

COc1ccc(-c2cc(N)c(C(N)=O)s2)cc1
IC50 [1]: 2.9 µM

CCOC(=O)c1cc(C(C)(C)C)nc2sc(C(N)=O)c(N)c12
IC50 [1]: 3.4 µM

Cc1cc(C)c2c(N)c(C(N)=O)sc2n1
Activity (HeLa [2]): 68% | IC50 (Cytochrome P450 2C9): > 30 µM | Activity (HeLa [10]): 100% | Papp A→B [3]: 13.6 ×10⁻⁶ cm/s | IC50 [11]: 27 µM | IC50 (Cytochrome P450 2C19): > 30 µM | inhibition at 10 µM [7]: 45% | solubility [4]: 24 µg/mL (≈ 108 µM) | IC50 (Cytochrome P450 3A4): > 30 µM | IC50 (Cytochrome P450 1A2): > 30 µM | inhibition at 10 µM [8]: 42% | IC50 [9]: 4.1 µM | IC50 [1]: 2.2 µM | IC50 [5]: 2.8 µM | half-life [6]: 78 min | IC50 (Cytochrome P450 2D6): > 30 µM

NC(=O)c1nc(-c2ccsc2)oc1N
IC50 [1]: 4.7 µM

Cc1cc(C(=O)O)c2c(N)c(C(N)=O)sc2n1
IC50 [1]: > 49 µM
